Experimental data published in USRE42700E1, “Induction of apoptosis in cancer cells” (Sanford-Burnham Medical Research Institute, priority 2001, dated 2011).

Columns and labels:
[1] = test system: leukemic blasts from patients (AML or CML in blast crisis); experiment: apoptosis in primary cultures of patient leukemic blasts; assay type: cell-based, human
Protocol: Cell Growth: IL-3-transfected M07e cells have been described by Thacker, D. J., et al., Leukemia 8: 871-877 (1994). Cells were grown in RPMI supplemented with 5 percent heat-inactivated fetal bovine serum (FBS) and 25 μg/ml gentamycin in a […], 5% CO2, and 100% humidity environment. Leukemic cells were obtained from patients who met the criteria for the diagnosis of AML or CML in blast crisis (see Table 1). Studies were approved by the Wayne State University Institutional Review Board. Informed consent was obtained from all patients. Leukemic blasts from patients were isolated using Ficoll hypaque. Cells at the interface between plasma and red blood cells were diluted with sterile PBS, then layered over Ficoll hypaque (1.077 density), and the leukemic cells collected at the interface. The sample to be studied represented greater than 90% blasts. The patient leukemia samples were grown in RPMI medium supplemented with 10% FBS, gentamycin (25 μg/ml), IL-3 (20 ng/ml), SCF (25 ng/ml), GM-CSF (20 ng/ml) and G-CSF (20 ng/ml). Cell growth was assessed using a cell proliferation kit.
(§1) Apoptosis Quantification: Staining of apoptotic cells was performed as described by Gavreli, Y., et al., (J. Cell. Biol. 119: 493-501 (1992)) and Whitacre, C. M., et al., (Cancer Res. 55: 3697-3701 (1995)). After 3-Cl-AHPC treatment, cells were harvested, washed with PBS and resuspended at 1×10^6 cells/ml. Cell suspensions (50 μl) were stained with […] of acridine orange solution ([…]) in PBS in the dark. Cells displaying fragmented DNA were detected using a fluorescent microscope. Apoptotic cells were also detected using a kit. Cells that incorporated fluorescein labeled deoxyuridine triphosphate were detected using flow cytometry.

[2] = CFU-GM colony formation, human bone marrow; assay type: cell-based; conditions: bone marrow CFU-GM progenitor cells
Protocol: (§2) CFU-GM Colony Formation: The CFU-GM colony assay was performed as described in Parchment et al., (J. Natl. Cancer Inst. 86: 273-280 (1994)).

RXRα = RXRα (Homo sapiens, UniProt P19793); experiment: activation of RXRα on the (TREpal)2-tk-CAT reporter construct; assay type: cell-based; conditions: 1.0 μM
[3] = test system: Bcl-2 and Mcl-1 in patient leukemic cells and M07e cells; experiment: Bcl-2 and Mcl-1 expression; assay type: cell-based, human; conditions: during 3-Cl-AHPC-mediated apoptosis
Protocol: (§3) Western Blots: Western blots were performed according to the protocol of Sheikh, M. S., et al., (Oncogene, 9: 3407-3415 (1994)). Logarithmically growing cells were treated with 3-Cl-AHPC for various times and cells were harvested and lysed in Laemmli lysis buffer (0.5 M Tris-HCl, pH 6.8, 0.002M EDTA, 10% glycerol, 10% sodium dodecyl sulfate (SDS), and 5% β-mercaptoethanol). Protein lysates (50 μg/lane) were electrophoresed on 12% SDS-polyacrylamide gels and transferred to nitrocellulose membranes. Membranes were blocked with 5% nonfat dried milk in PBS/0.5% Tween 20 and then incubated with the appropriate antibodies. Horseradish peroxidase-conjugated rabbit anti-mouse IgG was used as the secondary antibody, and bands were developed using the Amersham ECL non-radioactive method.

ZR-75 = experiment: apoptosis induction / cell death in breast cancer cells; assay type: cell-based, human
[4] = test system: PARP in M07e cells and patient leukemic blasts; experiment: PARP cleavage by Western blot; assay type: cell-based, human; conditions: 1 μM, by 24 hours
Protocol: as §3

[5] = test system: human MX-1 breast adenocarcinoma cells; experiment: MX-1 human mammary adenocarcinoma growth in SCID mice; assay type: in vivo
cancer cells = experiment: mitochondrial membrane potential (Δψm) using Rh123; assay type: cell-based; conditions: 10^−6 M
[6] = test system: prostate cancer LNCaP, lung cancer NCI-H460, breast cancer ZR-75-1 and MDA-MB231 cells; experiment: DAPI staining apoptosis in cancer cell lines; assay type: cell-based; conditions: 10^−6 M
Protocol: In FIG. 11, the indicated cancer cells were treated with 10^−6 M 3-Cl-AHPC, trypsinized, washed with PBS, fixed with 3.7% paraformaldehyde, and stained with 50 μg/ml DAPI containing 100 μg/ml DNase-free RNase A to visualize nuclei by fluorescent microscopy. The number of apoptotic cells with nuclear morphology typical of apoptosis, including nuclear fragmentation and condensation, was scored in at least 400 cells in each sample using a fluorescence microscope. In FIG. 12, the indicated cancer cells were treated with 10^−6 M 3-Cl-AHPC, trypsinized, washed with PBS, fixed with 3.7% paraformaldehyde, and stained with 50 μg/ml DAPI containing 100 μg/ml DNase-free RNase A to visualize nuclei and examined by fluorescent microscopy. Number of apoptotic cells with nuclear morphology typical of apoptosis, including nuclear fragmentation and condensation, was scored in at least 400 cells in each sample using a fluorescence microscope.

[7] = test system: ERK, p38 and JNK kinases in M07e and patient leukemic cells; experiment: activation of MAPK pathways (phospho-p38, phospho-ERK, phospho-JNK Western blots); assay type: cell-based, human; conditions: 1 μM
Protocol: as §3

[8] = test system: committed marrow stem cells (CFU-GM); experiment: CFU-GM colony formation (species not stated); assay type: cell-based; conditions: concentrations which completely inhibited leukemic colony formation
Protocol: as §2

RARβ = RARβ (Homo sapiens, UniProt P10826); experiment: activation of RARβ on the (TREpal)2-tk-CAT reporter construct; assay type: cell-based; conditions: 1.0 μM
[9] = test system: human acute megakaryocytic leukemia cell line M07e; experiment: M07e apoptosis quantification; assay type: cell-based
Protocol: as §1

patient leukemic cells = experiment: apoptosis of patient leukemic cells by tunnel assay and flow cytometry; assay type: cell-based, human; conditions: for apoptotic cells: 1 μM, 24 hours
Protocol: as §1
Flow Cytometry: Flow cytometry was performed on a flow cytometer equipped with an argon ion laser tuned to 15 mW at […] for fluorescence excitation and light scattering. Fluorescein isothiocyanate (FITC) fluorescence was detected using a 530/30 nm band pass filter and propidium iodide (PI) fluorescence was reflected with a 560-nm short pass dichroic filter using a 585/42-nm band pass filter. The doublet discrimination module was used to identify cell aggregates (Sharpless, T., et al., Acta Cytologica 19: 577-581 (1975)). Typically, 20,000 events of list mode data were saved and analyzed.

Bcl-XL in leukemic cells = experiment: Bcl-XL cleavage by Western blot; assay type: cell-based, human; conditions: 1 μM
Protocol: as §3

Chain of RARβ (P10826 whole entry, species assumed): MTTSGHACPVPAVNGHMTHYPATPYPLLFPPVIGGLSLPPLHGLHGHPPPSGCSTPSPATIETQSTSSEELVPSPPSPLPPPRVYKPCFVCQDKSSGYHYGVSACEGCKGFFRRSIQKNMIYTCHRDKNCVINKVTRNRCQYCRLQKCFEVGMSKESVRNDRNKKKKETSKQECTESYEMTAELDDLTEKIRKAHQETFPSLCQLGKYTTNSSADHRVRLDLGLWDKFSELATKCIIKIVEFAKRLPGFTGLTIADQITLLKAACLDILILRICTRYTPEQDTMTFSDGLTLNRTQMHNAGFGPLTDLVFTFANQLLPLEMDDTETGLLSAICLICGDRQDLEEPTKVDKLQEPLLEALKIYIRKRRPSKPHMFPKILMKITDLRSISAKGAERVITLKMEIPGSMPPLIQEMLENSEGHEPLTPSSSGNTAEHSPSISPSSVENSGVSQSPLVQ
Chain of RXRα (P19793 whole entry): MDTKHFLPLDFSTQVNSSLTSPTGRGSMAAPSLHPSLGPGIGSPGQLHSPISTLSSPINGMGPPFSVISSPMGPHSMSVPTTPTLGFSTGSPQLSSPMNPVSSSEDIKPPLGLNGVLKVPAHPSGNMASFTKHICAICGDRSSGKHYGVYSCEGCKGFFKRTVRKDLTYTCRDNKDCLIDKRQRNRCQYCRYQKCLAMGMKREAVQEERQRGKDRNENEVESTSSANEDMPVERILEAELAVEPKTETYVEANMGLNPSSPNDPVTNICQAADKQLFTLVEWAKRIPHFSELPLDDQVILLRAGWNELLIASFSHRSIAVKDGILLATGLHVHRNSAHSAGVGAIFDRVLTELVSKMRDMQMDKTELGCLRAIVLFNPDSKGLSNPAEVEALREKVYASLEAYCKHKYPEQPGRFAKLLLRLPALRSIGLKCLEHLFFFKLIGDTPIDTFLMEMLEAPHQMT

## O=C(O)/C=C/c1ccc(-c2ccc(O)c(C34CC5CC(CC(C5)C3)C4)c2)c(Cl)c1 [Example 3-Cl-AHPC, (E)-4-[3-(1-Adamantyl)-4-hydroxyphenyl]-3-chlorocinnamic acid]
[1]; 0.5 μM
  apoptosis of leukemic blasts: 60%
[1]; 1 μM, 11 primary cultures
  induction of apoptosis: > 80%
[1]; 0.2 and 0.1 μM
  apoptosis of leukemic blasts: minimal apoptosis
[1]; non-APL AML samples
  proliferation and apoptosis of primary human AML cultures (FIG. 13): inhibited the proliferation and induced apoptosis
[1]; patient leukemic cells
  concentration required to induce apoptosis: 0.5 µM
[2]
  IC90: > 15000 nM
RXRα
  activation of RXRα: does not activate
[3]
  modulation of Bcl-2 and Mcl-1 expression: no modulation of their expression
ZR-75
  ED50 (concentration that results in 50% cell death): 700 nM
[4]
  PARP cleavage: rapid cleavage of 116-Kd PARP
[5]; dose not stated (Table 5)
  animal deaths: no animal deaths
  inhibition of tumor growth: 70%
  weight loss: less than 4%
[5]; total dose 91 mg/kg, Qd (3-9)
  % body wt loss: −2%
  Drug deaths: 0/5
  T/C %: 62%
[5]; total dose 140 mg/kg, Qd (3-9)
  % body wt loss: −4%
  Drug deaths: 0/5
  T/C %: 56%
[5]; total dose 210 mg/kg, Qd (3-9)
  % body wt loss: −4%
  Drug deaths: 0/5
  Log cell kill: 1.2
  T/C %: 30%
Cancer cells
  percentage of cells with Δψm loss: significant increases in the percentage of cells with Δψm loss
[6]
  induction of apoptosis (DAPI staining): potently induced apoptosis
[7]
  activation of ERK, p38 and JNK kinases: inactivation of ERK, p38 and JNK kinases
[8]
  inhibition of CFU-GM colony formation: 30%
RARβ
  activation of RARβ: does not activate
[9]; 0.2 μM
  apoptosis: no significant increase in apoptosis
[9]; 0.5 and 1.0 μM
  apoptosis: onset of apoptosis
[9]; M07e cells
  concentration required to induce apoptosis: 0.5 µM
Patient leukemic cells
  patient leukemic cells that underwent apoptosis: over 80%
Patient leukemic cells; patient 1
  apoptotic cells: 67%
Patient leukemic cells; patient 10
  apoptotic cells: 80%
Bcl-XL in leukemic cells
  Bcl-XL cleavage: cleavage of Bcl-XL to a 18-kD product
